Experimental data from US9682995B2, “Amino-substituted isothiazoles” (BAYER PHARMA AKTIENGESELLSCHAFT, priority 2013, dated 2017).

Key:
[1] = target: human Bub1 (Homo sapiens (Human), UniProt O43683); assay: Bub1 kinase assay (TR-FRET); type: biochemical; settings: 10 μM ATP; read-out: Bub1 avg (IC50 [mol/l])
Description: Bub1-inhibitory activity of compounds of the present invention was quantified employing the Bub1 TR-FRET assay as described in the following paragraphs.
N-terminally His6-tagged recombinant catalytic domain of human Bub1 (amino acids 704-1085), expressed in insect cells (Hi5) and purified by Ni-NTA affinity chromatography and subsequent size exclusion chromatography, was used as enzyme. As substrate for the kinase reaction the biotinylated peptide biotin-Ahx-VLLPKKSFAEPG (C-terminus in amid form) was used which can be purchased e.g. form the company Biosyntan (Berlin, Germany).
For the assay 50 nl of a 100 fold concentrated solution of the test compound in DMSO was pipetted into a black low volume 384 well microtiter plate (Greiner Bio-One, Frickenhausen, Germany), 2 μl of a solution of Bub1 in aqueous assay buffer [50 mM Tris/HCl pH 7.5, 10 mM magnesium chloride (MgCl2), 200 mM potassium chloride (KCl), 1.0 mM dithiothreitol (DTT), 0.1 mM sodium ortho-vanadate, 1% (v/v) glycerol, 0.01% (w/v) bovine serum albumine (BSA), 0.005% (v/v) Trition X-100 (Sigma), 1× Complete EDTA-free protease inhibitor mixture (Roche)] were added and the mixture was incubated for 15 min at 22° C. to allow pre-binding of the test compounds to the enzyme before the start of the kinase reaction. Then the kinase reaction was started by the addition of 3 μl of a solution of adenosine-tri-phosphate (ATP, 16.7 μM=>final conc. in the 5 μl assay volume is 10 μM) and substrate (1.67 μM=>final conc. in the 5 μl assay volume is 1 μM) in assay buffer and the resulting mixture was incubated for a reaction time of 60 min at 22° C. The concentration of Bub1 was adjusted depending of the activity of the enzyme lot and was chosen appropriate to have the assay in the linear range, typical concentrations were in the range of 200 ng/ml. The reaction was stopped by the addition of 5 μl of a solution of TR-FRET detection reagents (0.2 μM streptavidine-XL665 [Cisbio Bioassays, Codolet, France] and 1 nM anti-phosho-Serine antibody [Merck Millipore, cat. #35-001] and 0.4 nM LANCE EU-W1024 labeled anti-mouse IgG antibody [Perkin-Elmer, product no. AD0077, as an alternative a Terbium-cryptate-labeled anti-mouse IgG antibody from Cisbio Bioassays can be used]) in an aqueous EDTA-solution (50 mM EDTA, 0.2% (w/v) bovine serum albumin in 100 mM HEPES pH 7.5).
The resulting mixture was incubated 1 h at 22° C. to allow the formation of complex between the phosphorylated biotinylated peptide and the detection reagents. Subsequently the amount of phosphorylated substrate was evaluated by measurement of the resonance energy transfer from the Eu-chelate to the streptavidine-XL. Therefore, the fluorescence emissions at 620 nm and 665 nm after excitation at 350 nm was measured in a TR-FRET reader, e.g. a Rubystar or Pherastar (both from BMG Labtechnologies, Offenburg, Germany) or a Viewlux (Perkin-Elmer). The ratio of the emissions at 665 nm and at […] was taken as the measure for the amount of phosphorylated substrate. The data were normalised (enzyme reaction without inhibitor=0% inhibition, all other assay components but no enzyme=100% inhibition).

[2] = target: human kinase Mps-1 (Homo sapiens (Human), UniProt P33981); assay: Mps-1 kinase assay (TR-FRET); type: biochemical; settings: 10 μM ATP; read-out: Mps1 avg (IC50 [mol/l])
Sequence of human kinase Mps-1 (P33981 whole entry): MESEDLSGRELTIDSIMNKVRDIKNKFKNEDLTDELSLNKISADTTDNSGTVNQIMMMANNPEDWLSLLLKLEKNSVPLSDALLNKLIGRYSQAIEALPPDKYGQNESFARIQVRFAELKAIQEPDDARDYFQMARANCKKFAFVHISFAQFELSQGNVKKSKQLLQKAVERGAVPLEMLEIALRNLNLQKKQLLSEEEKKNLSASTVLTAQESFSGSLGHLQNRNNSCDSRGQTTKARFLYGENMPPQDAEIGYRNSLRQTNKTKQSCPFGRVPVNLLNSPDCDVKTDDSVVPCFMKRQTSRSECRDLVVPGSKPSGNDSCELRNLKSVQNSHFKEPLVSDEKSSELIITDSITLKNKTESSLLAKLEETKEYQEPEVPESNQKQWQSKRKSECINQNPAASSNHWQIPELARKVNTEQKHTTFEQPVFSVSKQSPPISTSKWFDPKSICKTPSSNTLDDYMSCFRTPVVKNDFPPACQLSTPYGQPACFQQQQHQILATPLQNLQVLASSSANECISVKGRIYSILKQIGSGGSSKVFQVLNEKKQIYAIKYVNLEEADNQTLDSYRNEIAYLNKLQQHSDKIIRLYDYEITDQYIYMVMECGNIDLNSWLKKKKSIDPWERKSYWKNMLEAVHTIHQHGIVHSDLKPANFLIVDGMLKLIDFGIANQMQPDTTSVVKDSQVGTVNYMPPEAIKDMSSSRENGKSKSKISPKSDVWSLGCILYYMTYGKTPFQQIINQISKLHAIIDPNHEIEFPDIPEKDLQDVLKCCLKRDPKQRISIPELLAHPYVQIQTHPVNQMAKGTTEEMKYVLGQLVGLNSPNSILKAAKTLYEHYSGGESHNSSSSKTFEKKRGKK
Procedure: The human kinase Mps-1 phosphorylates a biotinylated substrate peptide. Detection of the phosphorylated product is achieved by time-resolved fluorescence resonance energy transfer (TR-FRET) from Europium-labelled anti-phospho-Serine/Threonine antibody as donor to streptavidin labelled with cross-linked allophycocyanin (SA-XLent) as acceptor. Compounds are tested for their inhibition of the kinase activity.
N-terminally GST-tagged human full length recombinant Mps-1 kinase (purchased from Invitrogen, Karslruhe, Germany, cat. no PV4071) was used. As substrate for the kinase reaction a biotinylated peptide of the amino-acid sequence biotin-Ahx-PWDPDDADITEILG (C-terminus in amide form, purchased from Biosyntan GmbH, Berlin) was used.
For the assay 50 nl of a 100-fold concentrated solution of the test compound in DMSO was pipetted into a black low volume 384 well microtiter plate (Greiner Bio-One, Frickenhausen, Germany), 2 μl of a solution of Mps-1 in assay buffer [0.1 mM sodium-ortho-vanadate, 10 mM MgCl2, 2 mM DTT, 25 mM Hepes pH 7.7, 0.05% BSA (w/v), 0.001% Pluronic F-127] were added and the mixture was incubated for 15 min at 22° C. to allow pre-binding of the test compounds to Mps-1 before the start of the kinase reaction. Then the kinase reaction was started by the addition of 3 μl of a solution of 16.7 μM adenosine-tri-phosphate (ATP, 16.7 μM=>final conc. in the 5 μl assay volume is 10 μM) and peptide substrate (1.67 μM=>final conc. in the 5 μl assay volume is 1 μM) in assay buffer and the resulting mixture was incubated for a reaction time of 60 min at 22° C. The concentration of Mps-1 in the assay was adjusted to the activity of the enzyme lot and was chosen appropriate to have the assay in the linear range, typical enzyme concentrations were in the range of about 0.5 nM (final conc. in the 5 μl assay volume). The reaction was stopped by the addition of 5 μl of a solution of TR-FRET detection reagents (100 mM Hepes pH 7.4, 0.1% BSA, 40 mM EDTA, 140 nM Streptavidin-XLent [#61GSTXLB, Fa. Cis Biointernational, Marcoule, France], 1.5 nM anti-phospho(Ser/Thr)-Europium-antibody [#AD0180, PerkinElmer LAS, Rodgau-Jugesheim, Germany]. Instead of the 1.5 nM anti-phospho(Ser/Thr)-Europium-antibody a mixture of 2 nM unlabeled anti-phospho ser/thr-pro antibody MPM-2 [Millipore cat. #05-368] and 1 nM LANCE EU-W1024 labeled anti-mouse IgG antibody [Perkin-Elmer, product no. AD0077] can be used).
The resulting mixture was incubated 1 h at 22° C. to allow the binding of the phosphorylated peptide to the anti-phospho(Ser/Thr)-Europium-antibody. Subsequently the amount of phosphorylated substrate was evaluated by measurement of the resonance energy transfer from the Europium-labelled anti-phospho(Ser/Thr) antibody to the Streptavidin-XLent. Therefore, the fluorescence emissions at 620 nm and 665 nm after excitation at 350 nm was measured in a Viewlux TR-FRET reader (PerkinElmer LAS, Rodgau-Jugesheim, Germany). The “blank-corrected normalized ratio” (a Viewlux specific readout, similar to the traditional ratio of the emissions at 665 nm and at 622 nm, in which blank and Eu-donor crosstalk are subtracted from the 665 nm signal before the ratio is calculated) was taken as the measure for the amount of phosphorylated substrate. The data were normalised (enzyme reaction without inhibitor=0% inhibition, all other assay components but no enzyme=100% inhibition).

Sequence of human Bub1 (O43683 704-1085): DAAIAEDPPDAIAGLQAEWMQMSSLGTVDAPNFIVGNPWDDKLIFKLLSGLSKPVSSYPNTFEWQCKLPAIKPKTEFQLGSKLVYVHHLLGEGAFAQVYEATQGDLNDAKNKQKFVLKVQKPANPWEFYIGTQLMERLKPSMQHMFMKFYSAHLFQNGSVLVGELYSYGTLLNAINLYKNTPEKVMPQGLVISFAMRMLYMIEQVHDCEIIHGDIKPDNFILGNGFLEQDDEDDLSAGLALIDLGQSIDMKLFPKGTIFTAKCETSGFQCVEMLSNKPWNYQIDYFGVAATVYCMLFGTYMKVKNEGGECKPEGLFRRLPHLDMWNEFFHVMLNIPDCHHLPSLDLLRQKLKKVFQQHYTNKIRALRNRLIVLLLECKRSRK

COc1ccc(NC(=O)c2c(C)nsc2Nc2nccnc2C#N)cn1 [Example 24, 5-[(3-Cyanopyrazin-2-yl)amino]-N-(6-methoxypyridin-3-yl)-3-methyl-1,2-thiazole-4-carboxamide]
IC50 [1]: 3.1 µM
IC50 [2]: > 20 µM

COc1ccc(NC(=O)c2c(C)nsc2Nc2cc(C#N)ccn2)cn1 [Example 25, 5-[(4-Cyanopyridin-2-yl)amino]-N-(6-methoxypyridin-3-yl)-3-methyl-1,2-thiazole-4-carboxamide]
IC50 [1]: > 20 µM
IC50 [2]: > 20 µM

CCOC(=O)c1sc(Nc2snc(C)c2C(=O)Nc2ccccc2CC)nc1C [Example 26, Ethyl 2-({4-[(2-ethylphenyl)carbamoyl]-3-methyl-1,2-thiazol-5-yl}amino)-4-methyl-1,3-thiazole-5-carboxylate]
IC50 [1]: > 20 µM
IC50 [2]: > 20 µM

Cc1nsc(Nc2cc(C#N)ccn2)c1C(=O)Nc1ccc(F)c(F)c1 [Example 27, 5-[(4-Cyanopyridin-2-yl)amino]-N-(3,4-difluorophenyl)-3-methyl-1,2-thiazole-4-carboxamide]
IC50 [1]: > 20 µM
IC50 [2]: > 20 µM

Cc1nsc(Nc2ccc(C#N)cn2)c1C(=O)Nc1ccc(F)c(F)c1 [Example 28, 5-[(5-Cyanopyridin-2-yl)amino]-N-(3,4-difluorophenyl)-3-methyl-1,2-thiazole-4-carboxamide]
IC50 [1]: > 20 µM
IC50 [2]: > 20 µM

CCOC(=O)c1cnc(Nc2snc(C)c2C(=O)Nc2ccc(OC)nc2)s1 [Example 29, Ethyl 2-({4-[(6-methoxypyridin-3-yl)carbamoyl]-3-methyl-1,2-thiazol-5-yl}amino)-1,3-thiazole-5-carboxylate]
IC50 [1]: > 20 µM
IC50 [2]: > 20 µM

CCOC(=O)c1sc(Nc2snc(C)c2C(=O)Nc2ccc(OC)nc2)nc1C [Example 30, Ethyl 2-({4-[(6-methoxypyridin-3-yl)carbamoyl]-3-methyl-1,2-thiazol-5-yl}amino)-4-methyl-1,3-thiazole-5-carboxylate]
IC50 [1]: > 20 µM
IC50 [2]: > 20 µM

COC(=O)c1ccc(Nc2snc(C)c2C(=O)Nc2ccc(OC)nc2)nc1 [Example 31, Methyl 6-({4-[(6-methoxypyridin-3-yl)carbamoyl]-3-methyl-1,2-thiazol-5-yl}amino)-nicotinate]
IC50 [1]: > 20 µM
IC50 [2]: > 20 µM

COC(=O)c1cnc(Nc2snc(C)c2C(=O)Nc2ccc(OC)nc2)cn1 [Example 32, Methyl 5-({4-[(6-methoxypyridin-3-yl)carbamoyl]-3-methyl-1,2-thiazol-5-yl}amino)-pyrazine-2-carboxylate]
IC50 [1]: > 20 µM
IC50 [2]: > 20 µM

CCc1ccccc1NC(=O)c1c(C)nsc1Nc1cnc2cccc(C)c2n1 [Example 33, N-(2-Ethylphenyl)-3-methyl-5-[(8-methylquinoxalin-2-yl)amino]-1,2-thiazole-4-carboxamide]
IC50 [1]: > 20 µM
IC50 [2]: > 20 µM

CCc1ccccc1NC(=O)c1c(C)nsc1Nc1nccnc1C#N [Example 34, 5-[(3-Cyanopyrazin-2-yl)amino]-N-(2-ethylphenyl)-3-methyl-1,2-thiazole-4-carboxamide]
IC50 [1]: > 20 µM
IC50 [2]: > 20 µM

CCc1ccccc1NC(=O)c1c(C)nsc1Nc1nc(C)nc2ccccc12 [Example 35, N-(2-Ethylphenyl)-3-methyl-5-[(2-methylquinazolin-4-yl)amino]-1,2-thiazole-4-carboxamide]
IC50 [1]: > 20 µM
IC50 [2]: > 20 µM

COc1ccc(NC(=O)c2c(C)nsc2Nc2cccc(C#N)n2)cn1 [Example 37, 5-[(6-Cyanopyridin-2-yl)amino]-N-(6-methoxypyridin-3-yl)-3-methyl-1,2-thiazole-4-carboxamide]
IC50 [1]: > 20 µM
IC50 [2]: > 20 µM

CCc1ccccc1NC(=O)c1c(C)nsc1Nc1nc(C)nc2sccc12 [Example 38, N-(2-Ethylphenyl)-3-methyl-5-[(2-methylthieno[2,3-d]pyrimidin-4-yl)amino]-1,2-thiazole-4-carboxamide]
IC50 [1]: > 20 µM
IC50 [2]: > 20 µM

COc1ccc(NC(=O)c2c(C)nsc2Nc2ccc(C#N)cn2)cn1 [Example 39, 5-[(5-Cyanopyridin-2-yl)amino]-N-(6-methoxypyridin-3-yl)-3-methyl-1,2-thiazole-4-carboxamide]
IC50 [1]: > 20 µM
IC50 [2]: > 20 µM

Cc1nsc(Nc2cnc3ccccc3n2)c1C(=O)Nc1ccc(Cl)c(F)c1 [Example 40, N-(4-Chloro-3-fluorophenyl)-3-methyl-5-(quinoxalin-2-ylamino)-1,2-thiazole-4-carboxamide]
IC50 [1]: > 20 µM
IC50 [2]: > 20 µM

CCc1ccccc1NC(=O)c1c(C)nsc1Nc1cnc2ccc(Cl)cc2n1 [Example 41, 5-[(7-Chloroquinoxalin-2-yl)amino]-N-(2-ethylphenyl)-3-methyl-1,2-thiazole-4-carboxamide]
IC50 [1]: > 20 µM
IC50 [2]: > 20 µM

COc1ccc(NC(=O)c2c(C)nsc2Nc2cnc3ccc(Cl)cc3n2)cn1 [Example 42, 5-[(7-Chloroquinoxalin-2-yl)amino]-N-(6-methoxypyridin-3-yl)-3-methyl-1,2-thiazole-4-carboxamide]
IC50 [1]: > 20 µM
IC50 [2]: > 20 µM

COc1ccc(NC(=O)c2c(C)nsc2Nc2cnc3c(F)c(F)ccc3n2)cn1 [Example 43, 5-[(5,6-Difluoroquinoxalin-2-yl)amino]-N-(6-methoxypyridin-3-yl)-3-methyl-1,2-thiazole-4-carboxamide]
IC50 [1]: > 20 µM
IC50 [2]: > 20 µM
